{
  "source": "patent US4997838A",
  "about": "“Pyrrolopyrimidine derivatives, their production and use” (Takeda Chemical Industries, Ltd., priority 1988, dated 1991)",
  "key": {"[1]": {"test_system": "Human nasopharyngeal cancer KB cells", "experiment": "cell growth inhibiting effect in KB cells (MTT)", "format": "cell-based", "conditions": "72 hours", "description": "Human nasopharyngeal cancer KB cells (1×10^4 cells/ml) prepared according to a conventional method were inoculated into each well of the 96-microwell plate (0.1 ml in a well) and subjected to standing culture at 37° C. under 5% CO2 for 24 hours. To this was added a solution of one of the compounds obtained in the Working Examples in 10% MEM (Nissui Pharmaceutical Co. Ltd.), and subjected again to standing culture at 37° C. under 5% CO2 for 72 hours. Then the culture was pipetted out, and another 0.1 ml of the solution of MTT (Dojindo Laboratories) in 10% MEM (1.0 mg/ml) was added and incubated at 37° C. for 4 hours. Then 0.1 ml of the 10% SDS solution (Wako Pure Chemicals) was added and incubated at 37° C. for further 24 hours. The absorbance at 590 nm was measured and the IC50 value of the compound was defined as the concentration of the compound required to decrease the number of cells in the untreated control group by 50%."}, "[2]": {"test_system": "dihydrofolic acid reductase", "conditions": "in words; cited from earlier work"}, "solid cancer": {"test_system": "solid cancer", "conditions": "in words; clinical use; cited from earlier work"}, "[3]": {"test_system": "Human Leukemia cells HL-60", "experiment": "cell growth inhibiting effect in HL-60 cells ([3H]-thymidine incorporation)", "format": "cell-based", "conditions": "HL-60, 68 hours + 4 hours [3H]-thymidine", "description": "(1) Human Leukemia cells HL-60 (2×10^5 cells/ml) were suspended in the GIT culture medium (Wako Pure Chemicals) containing the compound of this invention and 0.2 ml of the suspension was inoculated into each well of the 96-microwell plate. After standing culture at 37° C. under 5% CO2 for 68 hours, 1 μCi of [^3 H]-thymidine (5 Ci/mmol) was added and the mixture was incubated for 4 further hours. For measurement of the incorporation of thymidine into the cells, the acid-insoluble fraction was collected on a glass filter, and the radioactivity of the fraction was measured by a liquid scintillation counter. The IC50 value of the compound was defined as the concentration of the compound required to decrease the radioactivity incorporated into the cells in the untreated control group by 50%."}, "[4]": {"test_system": "Human fetal normal lung fibroblasts HEL", "experiment": "cell growth inhibiting effect in HEL cells (MTT)", "format": "cell-based", "conditions": "Fibroblast, 72 hours", "description": "(2) Human fetal normal lung fibroblasts HEL (1×10^4 cells/ml) were suspended in the MEM culture medium (Nippon Flow Laboratories) and 0.1 ml of the suspension was inoculated into each well of the 96-microwellplate. After standing culture at 37° C. under 5% CO2 for 24 hours, MEM culture medium containing the compound of this invention was added and the mixture was incubated for further 72 hours. The medium was replaced by the medium containing 1 μg/ml of MTT (Dojindo Laboratories), to which was added 10% SDS (Wako Pure Chemicals), and incubated overnight. Absorbance at 590 nm was measured by he Multiscan (Titertec Co.). The IC50 value was determined by comparing the absorbance in the untreated control group."}},
  "data": [
    {"smiles": "Nc1nc(N)c2c(n1)NCC2CCCc1ccc(C(=O)N[C@@H](CCC(=O)O)C(=O)O)cc1", "note": "(stereo partly drawn) [Working Example 16, N-[4-[3-(2,4-diamino-5,6-dihydropyrrolo[2,3-d]pyrimidin-5-yl)propyl]benzoyl]-L-glutamic acid]", "values": [
      {"measurement": "IC50", "setting": "[1]", "value": 0.0006, "unit": "mg/L"}
    ]},
    {"smiles": "CN(Cc1cnc2nc(N)nc(N)c2n1)c1ccc(C(=O)N[C@@H](CCC(=O)O)C(=O)O)cc1", "note": "[MTX]", "values": [
      {"measurement": "inhibition of dihydrofolic acid reductase", "setting": "[2]", "value": "inhibit the reduction from dihydrofolic acid into tetrahydrofolic acid by coupling strongly with the dominant enzyme"},
      {"measurement": "effect on solid cancer", "setting": "solid cancer", "value": "little effect on solid cancer"},
      {"measurement": "toxicity", "setting": "solid cancer", "value": "relatively strong toxicity"}
    ]},
    {"smiles": "Nc1nc(O)c2c(n1)NCC2CCCc1ccc(C(=O)N[C@@H](CCC(=O)O)C(=O)O)cc1", "note": "(stereo partly drawn) [Working Example 14, N-[4-[3-(2-amino-4-hydroxy-5,6-dihydropyrrolo[2,3-d]pyrimidin-5-yl)propyl]benzoyl]-L-glutamic acid]", "values": [
      {"measurement": "IC50", "setting": "[3]", "value": 0.04, "unit": "mg/L"},
      {"measurement": "IC50", "setting": "[4]", "value": "> 20", "unit": "mg/L"}
    ]},
    {"smiles": "Nc1nc(N)c2c(CCCc3ccc(C(=O)N[C@@H](CCC(=O)O)C(=O)O)cc3)c[nH]c2n1", "note": "[Working Example 4, N-[4-[3-(2,4-diamino-7H-pyrrolo [2,3-d]pyrimidin-5-yl)propyl]benzoyl]-L-glutamic acid]", "values": [
      {"measurement": "IC50", "setting": "[1]", "value": 0.0003, "unit": "mg/L"}
    ]},
    {"smiles": "Nc1nc(N)c2c(CCCc3ccc(C(=O)N[C@@H](CCC(=O)O)C(=O)O)cc3)c(O)[nH]c2n1", "note": "[Working Example 6, N-[4-[3-(2,4-diamino-6-hydroxy-7H-pyrrolo[2,3-d]pyrimidin-5-yl)propyl]benzoyl]-L-glutamic acid]", "values": [
      {"measurement": "IC50", "setting": "[1]", "value": 0.08, "unit": "mg/L"}
    ]}
  ]
}
